Laboratory results reported in patent US10800792B2, “Inhibitors of Bruton's tyrosine kinase and method of their use” (JANSSEN PHARMACEUTICA NV, priority 2015, dated 2020).

Target: unphosphorylated-BTK kinase domain (UP-BTK), GST-tagged human BTK (389-659aa) (Homo sapiens (Human), UniProt Q06187)
Experiment: BTK kinase Lanthascreen binding assay
Conditions: pIC50 = negative log of the IC50 in molar; 60 minutes incubation, 50 nM Tracer 236
Method in brief: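 Values are pIC50, i.e. negative log of IC50 in molar, derived from concentration–response fitting. Each compound competes with a fluorescently labelled tracer for the unphosphorylated kinase domain.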

Chain of unphosphorylated-BTK kinase domain (UP-BTK), GST-tagged human BTK (389-659aa) (Q06187 389-659): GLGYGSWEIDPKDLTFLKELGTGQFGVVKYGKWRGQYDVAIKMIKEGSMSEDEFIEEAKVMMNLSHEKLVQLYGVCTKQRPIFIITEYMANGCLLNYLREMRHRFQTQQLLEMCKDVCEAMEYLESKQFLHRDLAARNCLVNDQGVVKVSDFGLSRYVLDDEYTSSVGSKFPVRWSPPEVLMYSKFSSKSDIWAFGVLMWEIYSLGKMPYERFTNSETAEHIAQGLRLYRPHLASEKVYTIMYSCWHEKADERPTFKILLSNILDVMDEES

Row | SMILES | BTK_I_binding pIC50
1 | CN1CCC[C@@H](NC(=O)c2sc3nccc4c3c2NC(=O)N4c2ccc(Oc3ccccc3)cc2)C1 [Example 182, (R)—N-(1-Methylpiperidin-3-yl)-4-oxo-5-(4-phenoxyphenyl)-4,5-dihydro-3H-1-thia-3,5,8-triazaacenaphthylene-2-carboxamide] | 6.7
2 | Cc1cc(OC2CC2)ccc1N1C(=O)Nc2c(C(=O)N[C@@H]3CCCN(C(=O)/C(C#N)=C/C4CC4)C3)sc3nccc1c23 [Example 185, (R,E)-N-(1-(2-Cyano-3-cyclopropylacryloyl)piperidin-3-yl)-5-(4-cyclopropoxy-2-methylphenyl)-4-oxo-4,5-dihydro-3H-1-thia-3,5,8-triazaacenaphthylene-2-carboxamide] | 7.5
3 | Cc1cc(Oc2ccccc2)ccc1N1C(=O)Nc2c(C(=O)N[C@H]3CN(C)C[C@@H]3F)sc3nccc1c23 [Example 186, N-((3S,4S)-4-Fluoro-1-methylpyrrolidin-3-yl)-5-(2-methyl-4-phenoxyphenyl)-4-oxo-4,5-dihydro-3H-1-thia-3,5,8-triazaacenaphthylene-2-carboxamide] | 6.8
4 | COC[C@@H](OC)C(=O)N1CCC[C@@H](NC(=O)c2sc3nccc4c3c2NC(=O)N4c2ccc(Oc3ccccc3)cc2C)C1 [Example 190, N—((R)-1-((R)-2,3-Dimethoxypropanoyl)piperidin-3-yl)-5-(2-methyl-4-phenoxyphenyl)-4-oxo-4,5-dihydro-3H-1-thia-3,5,8-triazaacenaphthylene-2-carboxamide] | 7.0
5 | Cc1cc(Oc2ccccc2)ccc1N1C(=O)Nc2c(C(=O)NC3(CO)CCOCC3)sc3nccc1c23 [Example 192, N-(4-(Hydroxymethyl)tetrahydro-2H-pyran-4-yl)-5-(2-methyl-4-phenoxyphenyl)-4-oxo-4,5-dihydro-3H-1-thia-3,5,8-triazaacenaphthylene-2-carboxamide] | 6.8
6 | CCOc1ccc(N2C(=O)Nc3c(C(=O)N[C@@H]4CCCN(C(=O)/C(C#N)=C/C5CC5)C4)sc4nccc2c34)c(C)c1 [Example 193, (R,E)-N-(1-(2-Cyano-3-cyclopropylacryloyl)piperidin-3-yl)-5-(4-ethoxy-2-methylphenyl)-4-oxo-4,5-dihydro-3H-1-thia-3,5,8-triazaacenaphthylene-2-carboxamide] | 7.3
7 | C=CC(=O)N1CCC[C@@H](NC(=O)c2sc3nccc4c3c2NC(=O)N4c2ccccc2F)C1 [Example 194, (R)—N-(1-Acryloylpiperidin-3-yl)-5-(2-fluorophenyl)-4-oxo-4,5-dihydro-3H-1-thia-3,5,8-triazaacenaphthylene-2-carboxamide] | 6.9
8 | Cc1cc(Oc2ccccc2)ccc1N1C(=O)Nc2c(C(=O)N[C@H]3CN(C)C[C@H]3O)sc3nccc1c23 [Example 200, N-((3S,4R)-4-Hydroxy-1-methylpyrrolidin-3-yl)-5-(2-methyl-4-phenoxyphenyl)-4-oxo-4,5-dihydro-3H-1-thia-3,5,8-triazaacenaphthylene-2-carboxamide] | 6.6
9 | Cc1cc(Oc2ccccc2C2CC2)ccc1N1C(=O)Nc2c(C(=O)N[C@@H]3CCCN(C)C3)sc3nccc1c23 [Example 201, (R)-5-(4-(2-Cyclopropylphenoxy)-2-methylphenyl)-N-(1-methylpiperidin-3-yl)-4-oxo-4,5-dihydro-3H-1-thia-3,5,8-triazaacenaphthylene-2-carboxamide] | 6.6
10 | CO[C@@H]1CN(C)C[C@@H]1NC(=O)c1sc2nccc3c2c1NC(=O)N3c1ccc(Oc2ccccc2)cc1C [Example 208, N-((3S,4R)-4-Methoxy-1-methylpyrrolidin-3-yl)-5-(2-methyl-4-phenoxyphenyl)-4-oxo-4,5-dihydro-3H-1-thia-3,5,8-triazaacenaphthylene-2-carboxamide] | 6.8
11 | C=CC(=O)N1CC[C@@H](NC(=O)c2sc3nccc4c3c2NC(=O)N4c2c(Cl)ccc3c2OCO3)C1 [Example 209, (R)—N-(1-Acryloylpyrrolidin-3-yl)-5-(5-chlorobenzo[d][1,3]dioxol-4-yl)-4-oxo-4,5-dihydro-3H-1-thia-3,5,8-triazaacenaphthylene-2-carboxamide] | 7.1

Second part, the compound after the results:

Row | BTK_I_binding pIC50 | SMILES
12 | 6.7 | Cc1cc(Oc2ccccc2)ccc1N1C(=O)Nc2c(C(=O)NC3CCCN(C)CC3)sc3nccc1c23 (centres unmarked) [Example 187, 5-(2-Methyl-4-phenoxyphenyl)-N-(1-methylazepan-4-yl)-4-oxo-4,5-dihydro-3H-1-thia-3,5,8-triazaacenaphthylene-2-carboxamide]
13 | 6.7 | COCC(C)(C)C(=O)N1CCC[C@@H](NC(=O)c2sc3nccc4c3c2NC(=O)N4c2ccc(Oc3ccccc3)cc2C)C1 [Example 188, (R)—N-(1-(3-Methoxy-2,2-dimethylpropanol)piperidin-3-yl)-5-(2-methyl-4-phenoxyphenyl)-4-oxo-4,5-dihydro-3H-1-thia-3,5,8-triazaacenaphthylene-2-carboxamide]
14 | 6.6 | Cc1cc(Oc2ccccc2)ccc1N1C(=O)Nc2c(C(=O)NC3CCCN(C#N)CC3)sc3nccc1c23 (centres unmarked) [Example 189, N-(1-Cyanoazepan-4-yl)-5-(2-methyl-4-phenoxyphenyl)-4-oxo-4,5-dihydro-3H-1-thia-3,5,8-triazaacenaphthylene-2-carboxamide]
15 | 7.1 | Cc1cc(Oc2ccccc2)ccc1N1C(=O)Nc2c(C(=O)N[C@@H]3CCCN(C(=O)[C@@H]4CCNC4)C3)sc3nccc1c23 [Example 191, 5-(2-Methyl-4-phenoxyphenyl)-4-oxo-N—((R)-1-((R)-pyrrolidine-3-carbonyl)piperidin-3-yl)-4,5-dihydro-3H-1-thia-3,5,8-triazaacenaphthylene-2-carboxamide]
16 | 7.4 | Cc1cc(Oc2ccccc2)ccc1N1C(=O)Nc2c(C(=O)N[C@@H]3CCCN(C(=O)/C(C#N)=C\C(C)(C)N)C3)sc3nccc1c23 [Example 195, (R,Z)—N-(1-(4-Amino-2-cyano-4-methylpent-2-enoyl)piperidin-3-yl)-5-(2-methyl-4-phenoxyphenyl)-4-oxo-4,5-dihydro-3H-1-thia-3,5,8-triazaacenaphthylene-2-carboxamide]
17 | 6.8 | Cc1cc(Oc2ccccc2)ccc1N1C(=O)Nc2c(C(=O)N[C@@H]3CCCN(C(=O)/C(C#N)=C/C4(N)CC4)C3)sc3nccc1c23 [Example 196, (R,E)-N-(1-(3-(1-Aminocyclopropyl)-2-cyanoacryloyl)piperidin-3-yl)-5-(2-methyl-4-phenoxyphenyl)-4-oxo-4,5-dihydro-3H-1-thia-3,5,8-triazaacenaphthylene-2-carboxamide]
18 | 6.8 | Cc1cc(Oc2ccccc2)ccc1N1C(=O)Nc2c(C(=O)N[C@H]3CNC[C@@H](O)C3)sc3nccc1c23 [Example 197, N-((3R,5S)-5-Hydroxypiperidin-3-yl)-5-(2-methyl-4-phenoxyphenyl)-4-oxo-4,5-dihydro-3H-1-thia-3,5,8-triazaacenaphthylene-2-carboxamide]
19 | 7.0 | Cc1cc(Oc2ccccc2)ccc1N1C(=O)Nc2c(C(=O)N[C@@H]3CCCN(C(=O)[C@@H]4CCOC4)C3)sc3nccc1c23 [Example 198, 5-(2-Methyl-4-phenoxyphenyl)-4-oxo-N—((R)-1-((R)-tetrahydrofuran-3-carbonyl)piperidin-3-yl)-4,5-dihydro-3H-1-thia-3,5,8-triazaacenaphthylene-2-carboxamide]
20 | 6.6 | Cc1cc(Oc2ccccc2)ccc1N1C(=O)Nc2c(C(=O)N[C@@H]3CCCN(C(=O)/C=C/C4CC4)C3)sc3nccc1c23 [Example 199, (R,E)-N-(1-(3-Cyclopropylacryloyl)piperidin-3-yl)-5-(2-methyl-4-phenoxyphenyl)-4-oxo-4,5-dihydro-3H-1-thia-3,5,8-triazaacenaphthylene-2-carboxamide]
21 | 6.7 | Cc1cc(Oc2ccccc2)ccc1N1C(=O)Nc2c(C(=O)NC3CNC(=O)C3)sc3nccc1c23 (centres unmarked) [Example 202, 5-(2-Methyl-4-phenoxyphenyl)-4-oxo-N-(5-oxopyrrolidin-3-yl)-4,5-dihydro-3H-1-thia-3,5,8-triazaacenaphthylene-2-carboxamide]
22 | 6.5 | Cc1cc(Oc2ccccc2)ccc1N1C(=O)Nc2c(C(=O)NC3CCN(C)C(C)C3)sc3nccc1c23 (centres unmarked) [Example 203, N-(1,2-Dimethylpiperidin-4-yl)-5-(2-methyl-4-phenoxyphenyl)-4-oxo-4,5-dihydro-3H-1-thia-3,5,8-triazaacenaphthylene-2-carboxamide]
23 | 6.9 | C=C(C)C(=O)N1CCC[C@@H](NC(=O)c2sc3nccc4c3c2NC(=O)N4c2ccc(Oc3ccccc3)cc2C)C1 [Example 204, (R)—N-(1-Methacryloylpiperidin-3-yl)-5-(2-methyl-4-phenoxyphenyl)-4-oxo-4,5-dihydro-3H-1-thia-3,5,8-triazaacenaphthylene-2-carboxamide]
24 | 6.8 | Cc1cc(Oc2ccccc2)ccc1N1C(=O)Nc2c(C(=O)NC3CCCN(C(=O)C4CC4)C3)sc3nccc1c23 (centres unmarked) [Example 205, N-(1-(Cyclopropanecarbonyl)piperidin-3-yl)-5-(2-methyl-4-phenoxyphenyl)-4-oxo-4,5-dihydro-3H-1-thia-3,5,8-triazaacenaphthylene-2-carboxamide]
25 | 7.1 | Cc1cc(Oc2ccccc2)ccc1N1C(=O)Nc2c(C(=O)NC3CCCCN(C)C3)sc3nccc1c23 (centres unmarked) [Example 206, 5-(2-Methyl-4-phenoxyphenyl)-N-(1-methylazepan-3-yl)-4-oxo-4,5-dihydro-3H-1-thia-3,5,8-triazaacenaphthylene-2-carboxamide]
26 | 7.1 | Cc1cc(Oc2ccccc2)ccc1N1C(=O)Nc2c(C(=O)N[C@@H]3CCCN(C(=O)[C@H]4CCOC4)C3)sc3nccc1c23 [Example 207, 5-(2-Methyl-4-phenoxyphenyl)-4-oxo-N—((R)-1-((S)-tetrahydrofuran-3-carbonyl)piperidin-3-yl)-4,5-dihydro-3H-1-thia-3,5,8-triazaacenaphthylene-2-carboxamide]
